Assay [1] has as its target T1, human TLR7 (hTLR7) (Homo sapiens, UniProt Q9NYK1).
T1 construct: host or cells: HEK-Blue TLR7 cells (engineered human embryonic kidney cells)
T1 sequence (Q9NYK1 27-1049): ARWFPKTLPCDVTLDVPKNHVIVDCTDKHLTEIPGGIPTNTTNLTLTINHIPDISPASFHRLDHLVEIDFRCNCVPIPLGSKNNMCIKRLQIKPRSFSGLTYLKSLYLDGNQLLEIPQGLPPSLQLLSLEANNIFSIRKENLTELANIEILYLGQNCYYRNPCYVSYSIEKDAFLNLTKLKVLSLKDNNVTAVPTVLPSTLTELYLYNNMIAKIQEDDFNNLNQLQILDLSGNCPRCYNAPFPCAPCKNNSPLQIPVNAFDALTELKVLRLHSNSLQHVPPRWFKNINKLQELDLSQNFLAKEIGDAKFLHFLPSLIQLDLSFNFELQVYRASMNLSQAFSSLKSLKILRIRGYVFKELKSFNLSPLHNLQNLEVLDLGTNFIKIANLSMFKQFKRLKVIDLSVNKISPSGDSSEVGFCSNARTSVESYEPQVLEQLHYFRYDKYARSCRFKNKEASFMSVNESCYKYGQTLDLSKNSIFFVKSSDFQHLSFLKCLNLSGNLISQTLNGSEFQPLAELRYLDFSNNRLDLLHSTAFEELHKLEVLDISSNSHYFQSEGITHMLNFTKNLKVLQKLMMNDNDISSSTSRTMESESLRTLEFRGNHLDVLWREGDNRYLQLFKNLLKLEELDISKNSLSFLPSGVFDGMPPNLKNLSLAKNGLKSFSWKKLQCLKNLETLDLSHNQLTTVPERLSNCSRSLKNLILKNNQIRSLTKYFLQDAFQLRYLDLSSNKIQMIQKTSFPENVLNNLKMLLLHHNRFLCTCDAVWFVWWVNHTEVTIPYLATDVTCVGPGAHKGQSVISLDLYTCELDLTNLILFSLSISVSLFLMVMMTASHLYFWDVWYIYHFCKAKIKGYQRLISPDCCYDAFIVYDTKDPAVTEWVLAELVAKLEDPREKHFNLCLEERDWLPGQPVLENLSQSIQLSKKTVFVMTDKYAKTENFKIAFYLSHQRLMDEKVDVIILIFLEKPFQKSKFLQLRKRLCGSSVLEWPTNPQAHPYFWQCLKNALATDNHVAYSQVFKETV
Briefly: Human TLR7 agonist activity assay (HEK-Blue TLR7 SEAP reporter). The format is cell-based. The settings on record: HEK-Blue TLR7 cells, 18 h incubation, Quanti-Blue, OD 620 nm, some values average of multiple measurements. The method in brief:
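HEK-Blue TLR7 cells seeded 16-18 h, then exposed to compound for 18 h at 37 °C, 5% CO2. Secreted SEAP read with Quanti-Blue at OD 620 nm after 30 min. EC50 taken as concentration giving half-maximal response between baseline and maximum; some values averaged over repeats.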

In assay [2] the target is T2, human TLR8 (hTLR8) (Homo sapiens, UniProt Q9NR97).
T2 construct: expressed in transfected cells
T2 sequence (Q9NR97 27-1041): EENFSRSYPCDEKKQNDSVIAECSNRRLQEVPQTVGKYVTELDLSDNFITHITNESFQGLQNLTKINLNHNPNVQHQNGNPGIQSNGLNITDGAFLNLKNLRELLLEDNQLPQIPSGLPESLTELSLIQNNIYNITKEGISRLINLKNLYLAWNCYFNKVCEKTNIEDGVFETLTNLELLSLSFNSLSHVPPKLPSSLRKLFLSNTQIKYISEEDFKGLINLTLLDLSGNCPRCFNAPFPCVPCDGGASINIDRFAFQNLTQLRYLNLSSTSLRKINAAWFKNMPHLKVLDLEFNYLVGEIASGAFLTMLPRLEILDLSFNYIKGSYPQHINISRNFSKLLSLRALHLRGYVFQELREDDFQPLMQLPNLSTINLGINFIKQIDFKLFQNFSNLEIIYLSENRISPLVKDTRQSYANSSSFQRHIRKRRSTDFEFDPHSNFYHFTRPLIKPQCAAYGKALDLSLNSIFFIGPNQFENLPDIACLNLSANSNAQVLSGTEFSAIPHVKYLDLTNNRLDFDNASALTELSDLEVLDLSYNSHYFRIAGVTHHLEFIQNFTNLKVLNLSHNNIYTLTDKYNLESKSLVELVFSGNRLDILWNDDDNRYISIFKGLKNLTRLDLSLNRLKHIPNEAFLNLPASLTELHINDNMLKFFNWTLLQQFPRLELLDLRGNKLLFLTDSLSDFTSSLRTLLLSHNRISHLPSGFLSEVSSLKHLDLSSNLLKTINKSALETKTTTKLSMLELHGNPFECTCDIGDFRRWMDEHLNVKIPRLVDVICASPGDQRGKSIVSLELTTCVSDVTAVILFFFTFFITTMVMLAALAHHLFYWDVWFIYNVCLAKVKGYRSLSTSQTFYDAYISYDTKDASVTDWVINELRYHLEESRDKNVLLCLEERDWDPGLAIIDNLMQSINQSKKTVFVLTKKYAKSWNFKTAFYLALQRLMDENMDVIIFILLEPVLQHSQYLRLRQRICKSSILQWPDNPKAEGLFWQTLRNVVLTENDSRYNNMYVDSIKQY
Nature of the assay: Human TLR8 agonist activity assay (measured in a similar manner). Type of assay: cell-based. The settings on record: HEK-Blue TLR cells, SEAP reporter, measured in a similar manner to TLR7; some values average of multiple measurements. The method in brief: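 Compounds were added to HEK-Blue TLR8 reporter cells, pre-incubated 16-18 h, then treated 18 h at 37° C, 5% CO2. SEAP output was measured with Quanti-Blue (30 min) at OD 620 nm. Some values are averages of multiple measurements.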

What is called EC50 is the concentration needed to bring the measured effect to its halfway point. For `CCCCN(CCO)c1nc(N)nc2cn(Cc3ccc(CNC4(CO)CCOCC4)cc3OC)nc12` [Compound 154], the figures for the EC50 in assay [1] and in assay [2] were 2140 nM and 1100 nM, respectively.

Take `CCCCN(c1nc(N)nc2cn(Cc3ccc(CN4CCCCC4)cc3OC)nc12)C(C)CO` (stereo not drawn) [Compound 50]: the values for the 50% effective concentration (EC50) in assay [1] and in assay [2] were 374 nM and 949 nM, respectively.

Take `CCCCN(CCO)c1nc(N)nc2cn(Cc3c(F)cc(N4CCC(NC(C)C)CC4)cc3OC)nc12` [Compound 152]: the EC50 amounted to 749 nM in assay [1] and 1830 nM in assay [2].

`CCCCN(CCO)c1nc(N)nc2cn(Cc3ccc(CNCCOC)cc3)nc12` [Compound 161]: the EC50 was found to be 658 nM in assay [1] and 506 nM in assay [2].

In the case of `CCCCN(CCO)c1nc(N)nc2cn(Cc3c(F)cc(C4CCN(C5CC6(CCC6)C5)CC4)cc3OC)nc12` [Compound 39], the EC50 worked out at 396 nM in assay [1] and 437 nM in assay [2].

On to `CCCCN(CCO)c1nc(N)nc2cn(Cc3ccc(CNC4CCC4)cc3OC)nc12` [Compound 1], for which the EC50 in assay [1] is 1290 nM; in assay [2], 1140 nM.

With `CCCCN(CCO)c1nc(N)nc2cn(Cc3ccc(CNC4CCOCC4)c4c3OCCC4)nc12` [Compound 137], the EC50 worked out at 1050 nM in assay [1] and 400 nM in assay [2].

On to `CCCCN(CCO)c1nc(N)nc2cn(Cc3ccc(CN[C@@H]4CCOC4)cc3OC)nc12` [Compound 85], for which the concentration for a half-maximal effect (EC50) in assay [1] turned out to be 148 nM; in assay [2], 1970 nM.

`CCCCN(CCO)c1nc(N)nc2cn(Cc3ccc(CO)n4ncnc34)nc12` [Compound 177]: the EC50 in assay [1] was 949 nM; in assay [2], 1460 nM.

As to `CCCCN(CCO)c1nc(N)nc2cn(Cc3c(F)cc(CNCCO)cc3F)nc12` [Compound 113], the EC50 in assay [1] was 937 nM; in assay [2] it was 2960 nM.

`CCCCN(CCO)c1nc(N)nc2cn(Cc3cc(OC)c(C4CCN(C(C)C)CC4)cc3OC)nc12` [Compound 110]: the EC50 in assay [1] is 39 nM; in assay [2], 702 nM.

Take `CCCCN(CCO)c1nc(N)nc2cn(Cc3c(F)cc(CN4CC(OC)C4)cc3OC)nc12` [Compound 84]: the EC50 in assay [1] is 199 nM; in assay [2] it was 497 nM.

On to `CCCCN(CCO)c1nc(N)nc2cn(Cc3ccc(CN[C@@H]4CCOC4)c4oc(C)nc34)nc12` [Compound 142], for which the EC50 in assay [1] was 1630 nM; in assay [2] it was 915 nM.

`COc1cc(CN[C@@H]2CCOC2)ccc1Cn1cc2nc(N)nc(N(CCO)CCCCF)c2n1` [Compound 173]: the EC50 in assay [1] came to 2630 nM; in assay [2], 3130 nM.

On to `CCCCN(CCO)c1nc(N)nc2cn(Cc3ccc(CN4CCCNCC4)cc3OC)nc12` [Compound 55], for which the EC50 in assay [1] stood at 349 nM; in assay [2] it was 2030 nM.

As to `CCCCN(CCO)c1nc(N)nc2cn(Cc3ccc(CNC4CCOCC4)n4ncnc34)nc12` [Compound 171], the EC50 was 1700 nM in assay [1] and 1900 nM in assay [2].

`CCCCN(CCO)c1nc(N)nc2cn(Cc3ccc(CN[C@@H]4CCOC4)c4c3OCCC4)nc12` [Compound 135]: the results for the EC50 in assay [1] and in assay [2] were 1140 nM and 491 nM, respectively.

`COc1cc(CNC2CCC2)ccc1Cn1cc2nc(N)nc(N(CCO)CCCCF)c2n1` [Compound 176]: the EC50 in assay [1] was determined as 1640 nM; in assay [2] it was 1950 nM.

For `CCCCN(CCO)c1nc(N)nc2cn(Cc3ccc(CN[C@@H]4CCOC4)n4ncnc34)nc12` [Compound 172], the results for the concentration giving a half-maximal response (EC50) in assay [1] and in assay [2] were 870 nM and 1350 nM, respectively.

Regarding `CCCCN(CCO)c1nc(N)nc2cn(Cc3ccc(CN4CCCC4)cc3OC)nc12` [Compound 4], the EC50 is 694 nM in assay [1] and 633 nM in assay [2].

Consider `CCCCN(CCO)c1nc(N)nc2cn(Cc3ccc(CN[C@H]4C[C@H](OC)C4)n4ccnc34)nc12` [Compound 188], for which the concentration for a half-maximal effect (EC50) in assay [1] amounted to 781 nM; in assay [2], 1400 nM.

For the molecule `CCCCN(CCO)c1nc(N)nc2cn(Cc3ccc(CN4CC5(CC(O)C5)C4)cc3OC)nc12` [Compound 27], the EC50 in assay [1] was 1970 nM; in assay [2] it was 1950 nM.

Turning to `CCCCN(CCO)c1nc(N)nc2cn(Cc3ccc(CN4CCCC4)cc3C(F)F)nc12` [Compound 97], the concentration giving a half-maximal response (EC50) in assay [1] and in assay [2] was 1050 nM each time.

In the case of `CCCCN(CCO)c1nc(N)nc2cn(Cc3ccc(CN4CC5(CC(OC)C5)C4)cc3OC)nc12` [Compound 6], the EC50 was 680 nM in assay [1] and 892 nM in assay [2].

These data come from patent publication US20250282776A1, “Bicyclic TLR7 Agonists and Uses Thereof” (Bristol-Myers Squibb Company, priority 2024, published 2025).
